pIC50: −log10 of the molar value. Where two headings read alike, the source gives them in different places.
Key:
Assay type in all cases: biochemical
[1] = target: T1, FIIa (Homo sapiens); experiment: AT-dependent IIa inhibitory activity assay
T1 construct: antithrombin (i.e., active coagulation factor IIa); purchased
Experimental: AT-dependent IIa inhibitory activity assay: Heparin Anti-FIIa kit was used for detection. To a 96-well plate, 30 μL of sample, control solution or Tris-HCl buffer (negative control) was added, and then 30 μL of 1 IU/mL AT solution was added, mixed well by shaking the plate and incubated at 37° C. for 2 min; 30 μL of 24 IU/mL FIIa solution was added, mixed well by shaking the plate and incubated for 2 min at 37° C., and then 30 μL of pre-warmed 1.25 mM FIIa specific chromogenic substrate CS-01 (38) was added, mixed well by shaking the plate. The OD405 was detected by a microplate reader and the IC50 value of FIIa inhibition of each sample was calculated.
(§1) Data processing: The average value of OD405 detected by the duplicated well was used as the detection value of the test sample and the reference of each concentration, and the slope of the linear fit between the detected value to the time value (the change rate of the absorbance value OD405/min) indicated enzymatic activity of coagulation factor. Taking the clotting factor activity of the negative control well as 100%, coagulation factor activity (percentage) in the presence of the test sample was calculated. The coagulation factor activity in the presence of the test sample was plotted against the concentration of the test sample, and fitted according to the following formula, to calculate the IC50 value: B=(IC50)^n/{(IC50)^n+[I]^n}
(§2) in the formula, B is the coagulation factor activity (percentage) in the presence of the test sample, [I] is the concentration of the test sample, IC50 is the half inhibitory concentration (concentration of the test sample required to inhibit 50% of the activity), and n is the Hill coefficient. • (4) Effect on surface activation and platelet activity: […]

[2] = target: T2, intrinsic factor Xase (Homo sapiens, UniProt P00740); experiment: Xase inhibitory activity assay; conditions: for IC50: read-out: Drug concentration required to inhibit 50% of coagulation factor activity (IC50, ng/mL) Xase (converted)
T2 construct: 60 nM FIXa; purchased
Experimental: Xase inhibitory activity assay: Detection was performed according to kit instructions and literature methods by combining the Factor VIII and […]. Specifically, to each well of a 96-well plate, 30 μL of test solution, control solution, or Tris-HCl buffer (negative control) was added, and 30 μl of FVIII (2 IU/ml), 30 μl of R2 (60 nM FIXa, containing FIIa, PC/PS, Ca^2+) were sequentially added, mixed by shaking the plate, incubated at 37° C. for 2 min; and then 30 μL of R1 (50 nM FX, containing direct thrombin inhibitor) was added, mixed by shaking the plate, incubated at 37° C. for 1 min; and then 30 μL of R3 (FXa chromogenic substrate SXa-11, about 8.4 mM) was added. The absorbance at 405 nm (OD405) was detected with a microplate reader, continuously measuring for 7.5 min at a interval of 30 s. The Xase activity and IC50 value of Xase inhibition of the test sample were calculated based on the OD405 change value.
as §1, §2

[3] = tested on: human-controlled plasma; experiment: Anticoagulant activity assay: PT clotting time
Experimental: (§3) 8.2 Methods • (1) Preparation of sample solution: Oligosaccharide compounds A1˜A8, B1˜B11 and oligosaccharide mixtures C1, D1, D2 were all dissolved in Tris-HCl buffer and diluted to the desired series of solubility. • (2) Anticoagulant activity assay: 90 μL of human-controlled plasma was added to the sample or 10 μL of the control solution, and then the clotting time (APTT and PT) was detected by the MC-4000 coagulometer according to the method described in the APTT and PT kit instructions. • (3) Coagulation factor inhibitory activity analysis: […]

[4] = tested on: human-controlled plasma; experiment: Anticoagulant activity assay: APTT clotting time
Experimental: as §3

[5] = target: T3, FXa (Homo sapiens); experiment: AT-dependent Xa inhibitory activity assay
T3 construct: 8 μg/mL FXa solution; purchased
Experimental: AT-dependent Xa inhibitory activity assay: Heparin […] kit was used for detection. To a 96-well plate, 30 μL of sample, control solution or Tris-HCl buffer (negative control) was added, then 30 μL of 1 IU/mL AT solution was added, mixed well and incubated at 37° C. for 1 min; and than 30 μL of 8 μg/mL FXa solution was added, mixed well and incubated at 37° C. for 1 min, then 30 μL of pre-warmed 1.25 mM Xa chromogenic substrate SXa-11 was added. OD405 was detected by a microplate reader.
as §1, §2

[6] = tested on: plasma; experiment: TT (thrombin time) clotting time
[7] = in presence of AT; read-out: Drug concentration required to inhibit 50% of coagulation factor activity (IC50, ng/mL) Ha (AT)
[8] = in presence of AT; read-out: Drug concentration required to inhibit 50% of coagulation factor activity (IC50, ng/mL) Xa (AT)

T2 sequence (P00740 47-191 limits assumed): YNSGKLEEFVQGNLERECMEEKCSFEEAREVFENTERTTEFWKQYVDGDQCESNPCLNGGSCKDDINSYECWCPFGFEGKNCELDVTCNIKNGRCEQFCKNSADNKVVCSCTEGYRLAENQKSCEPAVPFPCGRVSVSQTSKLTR
T2 sequence (P00740 227-461 limits assumed): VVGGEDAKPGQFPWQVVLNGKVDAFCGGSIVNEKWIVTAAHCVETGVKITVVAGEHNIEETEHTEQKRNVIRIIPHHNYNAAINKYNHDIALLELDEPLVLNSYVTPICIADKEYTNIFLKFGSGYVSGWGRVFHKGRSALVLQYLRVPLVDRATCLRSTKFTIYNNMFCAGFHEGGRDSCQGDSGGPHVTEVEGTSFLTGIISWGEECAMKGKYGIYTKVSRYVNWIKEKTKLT
T1 sequence (P01008 33-464): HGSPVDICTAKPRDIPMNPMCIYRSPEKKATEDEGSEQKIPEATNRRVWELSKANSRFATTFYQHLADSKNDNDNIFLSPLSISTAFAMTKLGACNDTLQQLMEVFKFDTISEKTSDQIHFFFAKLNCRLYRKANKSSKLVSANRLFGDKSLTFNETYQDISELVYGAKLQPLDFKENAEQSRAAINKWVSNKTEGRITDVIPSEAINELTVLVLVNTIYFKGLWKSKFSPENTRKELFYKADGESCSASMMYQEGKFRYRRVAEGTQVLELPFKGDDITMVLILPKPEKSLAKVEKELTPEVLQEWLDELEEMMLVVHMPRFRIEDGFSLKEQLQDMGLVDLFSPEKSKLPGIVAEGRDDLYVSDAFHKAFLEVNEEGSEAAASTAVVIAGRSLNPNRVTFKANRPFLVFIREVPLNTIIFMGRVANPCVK
T3 sequence (P01008 33-464): as above

SMILES | pIC50 [1, 7] | IC50 [2] [nM] | Drug concentration required for multiplication of coagulation time (μg/mL) PT [3] | Drug concentration required for multiplication of coagulation time (μg/mL) APTT [4] [µg/mL] | pIC50 [5, 8] | Drug concentration required for multiplication of coagulation time (μg/mL) TT [6] | pIC50 ([1]; read-out: Drug concentration required to inhibit 50% of coagulation factor activity (IC50, ng/mL) Ha (AT); in presence of AT) | pIC50 ([2]; read-out: Drug concentration required to inhibit 50% of coagulation factor activity (IC50, ng/mL) Xase) | pIC50 ([5]; read-out: Drug concentration required to inhibit 50% of coagulation factor activity (IC50, ng/mL) Xa (AT); in presence of AT)
CC(=O)NC(CO)C(OC1OC(C(=O)O)C(OC2OC(COS(=O)(=O)O)C(OS(=O)(=O)O)C(OC3OC(C(=O)O)C(OC4OC(COS(=O)(=O)O)C(OS(=O)(=O)O)C(OC5OC(C(=O)O)C(OC6OC(COS(=O)(=O)O)C(OS(=O)(=O)O)C(OC7OC(C(=O)O)C(OC8OC(COS(=O)(=O)O)C(OS(=O)(=O)O)C(OC9OC(C(=O)O)=CC(OC%10OC(C)C(OS(=O)(=O)O)C(O)C%10OS(=O)(=O)O)C9O)C8NC(C)=O)C(OC8OC(C)C(OS(=O)(=O)O)C(O)C8OS(=O)(=O)O)C7O)C6NC(C)=O)C(OC6OC(C)C(OS(=O)(=O)O)C(O)C6OS(=O)(=O)O)C5O)C4NC(C)=O)C(OC4OC(C)C(OS(=O)(=O)O)C(O)C4OS(=O)(=O)O)C3O)C2NC(C)=O)C(OC2OC(C)C(OS(=O)(=O)O)C(O)C2OS(=O)(=O)O)C1O)C(OS(=O)(=O)O)C(O)COS(=O)(=O)O [Compound A4, L-Fuc2S4S-(α1,3)-ΔUA-(α1,3)-{D-GaNAc4S6S-(β1,4)-[L-Fuc2S4S-(α1,3)]-D-GlcA-(β1,3)}n+1-D-GalNAc4S6S-ol] | < 5.93 | 6.67 | # (>128 μg/mL) | 5.3 | < 5.93 | # (>128 μg/mL) |  |  | 
CCOC(=O)c1ccc(NCC(O)C(OC2OC(C)C(OS(=O)(=O)O)C(O)C2OS(=O)(=O)O)C(OC2OC(COS(=O)(=O)O)C(OS(=O)(=O)O)C(OC3OC(C(=O)O)C(OC4OC(COS(=O)(=O)O)C(OS(=O)(=O)O)C(OC5OC(C(=O)O)C(OC6OC(COS(=O)(=O)O)C(OS(=O)(=O)O)C(OC7OC(C(=O)O)=CC(OC8OC(C)C(OS(=O)(=O)O)C(O)C8OS(=O)(=O)O)C7O)C6NC(C)=O)C(OC6OC(C)C(OS(=O)(=O)O)C(O)C6OS(=O)(=O)O)C5O)C4NC(C)=O)C(OC4OC(C)C(OS(=O)(=O)O)C(O)C4OS(=O)(=O)O)C3O)C2NC(C)=O)C(O)C(=O)O)cc1 [Compound B11, L-Fuc2S4S-(α1,3)-L-ΔUA-(α1,3)-{D-GalNAc4S6S-(β1,4)-[L-Fuc2S4S-(α1,3)]-D-GlcA-(β1,3)}2-D-GalNAc4S6S-(β1,4)-[L-Fuc2S4S-(α1,3)]-D-1-deoxy-1-amino-GlcA-ol-N-4-benzoic ethyl ester] | < 5.80 | 9.56 | # (>128 μg/mL) | 6.3 | < 5.80 | # (>128 μg/mL) |  |  | 
COCC(NC(C)=O)C(OC1OC(C(=O)OC)C(OC2OC(COS(=O)(=O)O)C(OS(=O)(=O)O)C(OC3OC(C(=O)OC)C(OC4OC(COS(=O)(=O)O)C(OS(=O)(=O)O)C(OC5OC(C(=O)OC)=CC(OC6OC(C)C(OS(=O)(=O)O)C(O)C6OS(=O)(=O)O)C5O)C4NC(C)=O)C(OC4OC(C)C(OS(=O)(=O)O)C(O)C4OS(=O)(=O)O)C3O)C2NC(C)=O)C(OC2OC(C)C(OS(=O)(=O)O)C(O)C2OS(=O)(=O)O)C1O)C(OS(=O)(=O)O)C(O)COS(=O)(=O)O [Compound A8, L-Fuc2S4S-(α1,3)-[6-Methyl-ΔUA-(α1,3)]-{D-GaNAc4S6S-(β1,4)-[L-Fuc2S4S-(α1,3)-]-D-6-Methyl-GlcA-(β1,3)}2-D-1-Methyl-Gal-NAc4S6S-ol] | < 5.72 | 27.2 | # (>128 μg/mL) | 8.2 | < 5.72 | # (>128 μg/mL) |  |  | 
CC(=O)NC1C(OC2C(C(=O)O)OC(OC3C(NC(C)=O)C(OC4C(C(=O)O)OC(OC5C(NC(C)=O)C(OC6C(C(=O)O)OC(OC7C(NC(C)=O)C(OC(C(O)C(=O)O)C(OC8OC(C)C(OS(=O)(=O)O)C(OS(=O)(=O)O)C8O)C(O)CO)OC(COS(=O)(=O)O)C7OS(=O)(=O)O)C(O)C6OC6OC(C)C(OS(=O)(=O)O)C(OS(=O)(=O)O)C6O)OC(COS(=O)(=O)O)C5OS(=O)(=O)O)C(O)C4OC4OC(C)C(OS(=O)(=O)O)C(OS(=O)(=O)O)C4O)OC(COS(=O)(=O)O)C3OS(=O)(=O)O)C(O)C2OC2OC(C)C(OS(=O)(=O)O)C(OS(=O)(=O)O)C2O)OC(COS(=O)(=O)O)C(OS(=O)(=O)O)C1OC1OC(C(=O)O)=CC(OC2OC(C)C(OS(=O)(=O)O)C(OS(=O)(=O)O)C2O)C1O [Compound B4, L-Fuc3S4S-(α1,3)-L-ΔUA-(α1,3)-{D-GalNAc4S6S-(β1,4)-[L-Fuc3S4S-(α1,3)]-D-GlcA-(β1,3)}˜-D-GalNAc4S6S-(β1,4)-[L-Fuc3S4S-(α1,3)]-D-GlcA-ol] |  |  | # (>128 μg/mL) | 4.5 |  | # (>128 μg/mL) | < 5.89 | 8.27 | < 5.89
CC(=O)NC1C(OC2C(C(=O)O)OC(OC3C(NC(C)=O)C(OC(C(O)C(=O)O)C(OC4OC(C)C(OS(=O)(=O)O)C(OS(=O)(=O)O)C4O)C(O)CO)OC(COS(=O)(=O)O)C3OS(=O)(=O)O)C(O)C2OC2OC(C)C(OS(=O)(=O)O)C(OS(=O)(=O)O)C2O)OC(COS(=O)(=O)O)C(OS(=O)(=O)O)C1OC1OC(C(=O)O)=CC(OC2OC(C)C(OS(=O)(=O)O)C(OS(=O)(=O)O)C2O)C1O [Compound B2, L-Fuc3S4S-(α1,3)-L-ΔUA-(α1,3)-{D-GalNAc4S6S-(β1,4)-[L-Fuc3S4S-(α1,3)]-D-GlcA-(β1,3)}˜-D-GalNAc4S6S-(β1,4)-[L-Fuc3S4S-(α1,3)]-D-GlcA-ol] | < 5.64 | 29.5 | # (>128 μg/mL) | 7.5 | < 5.64 | # (>128 μg/mL) |  |  | 

Source: US12280072B2, “Oligosaccharide compound for inhibiting intrinsic coagulation factor X-enzyme complex, and preparation method therefor and uses thereof” (Jiuzhitang Co., Ltd., priority 2017, dated 2025)
